Literature values as cited in patent US7932083B2, “DNA participating in hydroxylation of macrolide compound” (priority 2003, dated 2011).

Conditions: statement of prior art (WO02/060890)

SMILES: CCC(O)C(C)C1OC1CC(C)(O)/C=C/C=C(\C)C1OC(=O)CC(O)CCC(C)(O)C(OC(C)=O)/C=C/C1C (stereo not shown) [11107D]
- antitumor activity: excellent antitumor activity
